According to ChEMBL document CHEMBL1147637, “Synthesis and biological activity of selective azasugar-based TACE inhibitors” (Bioorg Med Chem Lett, 2004):
pKi: −log10 of the molar value.

Tests used:
Stromelysin-1 = Stromelysin-1 (Homo sapiens, UniProt P08254); assay: Inhibition of recombinant human matrix metalloprotease-3
Interstitial collagenase = target: T1, Interstitial collagenase (Homo sapiens, UniProt P03956); assay: Inhibition of recombinant human matrix metalloprotease-1
T1 sequence (P03956 whole entry): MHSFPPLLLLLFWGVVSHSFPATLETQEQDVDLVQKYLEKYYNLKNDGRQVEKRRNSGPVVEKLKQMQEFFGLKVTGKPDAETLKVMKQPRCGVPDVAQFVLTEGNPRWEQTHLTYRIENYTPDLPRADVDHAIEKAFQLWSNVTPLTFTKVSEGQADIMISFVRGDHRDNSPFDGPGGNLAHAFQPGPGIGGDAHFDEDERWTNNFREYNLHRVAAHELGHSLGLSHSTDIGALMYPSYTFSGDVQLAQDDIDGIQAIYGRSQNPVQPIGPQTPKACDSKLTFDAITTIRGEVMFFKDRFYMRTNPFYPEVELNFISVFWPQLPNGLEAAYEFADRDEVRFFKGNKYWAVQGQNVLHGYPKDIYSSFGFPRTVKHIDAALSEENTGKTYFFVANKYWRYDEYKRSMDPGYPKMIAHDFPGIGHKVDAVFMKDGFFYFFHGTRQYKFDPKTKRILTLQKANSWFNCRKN

[1] = target: Matrix metalloproteinase-9 (Homo sapiens, UniProt P14780); assay: Inhibition of recombinant human matrix metalloprotease-9
Chain of Matrix metalloproteinase-9 (P14780 whole entry, the tested form may be a part): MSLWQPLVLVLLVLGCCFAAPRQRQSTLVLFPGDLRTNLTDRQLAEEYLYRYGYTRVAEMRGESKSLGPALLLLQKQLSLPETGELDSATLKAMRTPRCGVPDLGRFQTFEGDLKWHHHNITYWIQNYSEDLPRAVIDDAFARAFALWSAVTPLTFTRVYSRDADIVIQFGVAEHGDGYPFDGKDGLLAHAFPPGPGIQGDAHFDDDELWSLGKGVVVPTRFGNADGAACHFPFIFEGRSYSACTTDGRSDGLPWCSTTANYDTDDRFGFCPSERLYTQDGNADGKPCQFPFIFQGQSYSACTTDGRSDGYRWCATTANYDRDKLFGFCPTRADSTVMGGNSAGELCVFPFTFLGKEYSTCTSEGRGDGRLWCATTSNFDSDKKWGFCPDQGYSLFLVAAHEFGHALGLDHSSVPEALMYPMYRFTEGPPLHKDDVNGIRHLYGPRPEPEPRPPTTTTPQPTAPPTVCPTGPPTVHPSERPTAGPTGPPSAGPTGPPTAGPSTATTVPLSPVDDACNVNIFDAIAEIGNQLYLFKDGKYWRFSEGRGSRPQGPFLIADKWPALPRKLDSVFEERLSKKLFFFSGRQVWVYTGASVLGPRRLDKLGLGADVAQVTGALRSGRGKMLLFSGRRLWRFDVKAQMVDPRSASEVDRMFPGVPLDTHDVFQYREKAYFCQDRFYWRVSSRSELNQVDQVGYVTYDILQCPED

[2] = target: Disintegrin and metalloproteinase domain-containing protein 17 (Homo sapiens, UniProt P78536); assay: Inhibition of recombinant human TNF-alpha converting enzyme
Chain of Disintegrin and metalloproteinase domain-containing protein 17 (P78536 whole entry, the tested form may be a part): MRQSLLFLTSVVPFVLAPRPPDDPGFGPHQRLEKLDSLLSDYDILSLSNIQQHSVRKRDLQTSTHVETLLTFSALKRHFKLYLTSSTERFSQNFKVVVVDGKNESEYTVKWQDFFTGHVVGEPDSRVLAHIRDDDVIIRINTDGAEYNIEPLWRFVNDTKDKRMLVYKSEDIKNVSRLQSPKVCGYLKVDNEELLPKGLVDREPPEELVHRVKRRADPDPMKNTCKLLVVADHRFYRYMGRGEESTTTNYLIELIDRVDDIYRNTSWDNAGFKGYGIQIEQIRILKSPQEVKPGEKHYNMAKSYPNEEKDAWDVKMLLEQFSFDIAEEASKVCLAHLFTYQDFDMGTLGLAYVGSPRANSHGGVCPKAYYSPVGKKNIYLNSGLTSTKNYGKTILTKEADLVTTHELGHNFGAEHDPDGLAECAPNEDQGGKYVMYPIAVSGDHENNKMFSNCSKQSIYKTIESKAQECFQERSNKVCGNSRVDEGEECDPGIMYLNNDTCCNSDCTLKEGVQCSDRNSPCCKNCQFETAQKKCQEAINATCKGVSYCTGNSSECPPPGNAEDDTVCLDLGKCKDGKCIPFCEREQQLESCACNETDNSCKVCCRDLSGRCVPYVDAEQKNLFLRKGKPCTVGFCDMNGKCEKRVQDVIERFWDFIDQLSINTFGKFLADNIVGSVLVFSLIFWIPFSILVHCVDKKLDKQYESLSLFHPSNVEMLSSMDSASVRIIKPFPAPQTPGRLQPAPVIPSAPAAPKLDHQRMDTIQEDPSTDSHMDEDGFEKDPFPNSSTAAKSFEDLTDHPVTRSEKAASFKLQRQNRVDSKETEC

Chain of Stromelysin-1 (P08254 whole entry): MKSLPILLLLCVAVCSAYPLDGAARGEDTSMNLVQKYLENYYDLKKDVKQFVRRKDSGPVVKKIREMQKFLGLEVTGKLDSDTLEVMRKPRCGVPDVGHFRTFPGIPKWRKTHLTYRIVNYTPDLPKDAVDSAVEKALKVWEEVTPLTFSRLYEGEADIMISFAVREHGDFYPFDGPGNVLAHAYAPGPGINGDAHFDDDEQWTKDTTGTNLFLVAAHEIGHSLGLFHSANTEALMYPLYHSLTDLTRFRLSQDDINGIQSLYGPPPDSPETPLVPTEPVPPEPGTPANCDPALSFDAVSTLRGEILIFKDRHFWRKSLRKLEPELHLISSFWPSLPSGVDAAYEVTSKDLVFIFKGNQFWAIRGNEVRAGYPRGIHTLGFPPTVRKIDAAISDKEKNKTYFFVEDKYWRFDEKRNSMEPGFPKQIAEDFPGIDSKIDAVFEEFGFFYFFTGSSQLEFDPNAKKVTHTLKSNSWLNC

Compound	pKi (Stromelysin-1)	pKi (Interstitial collagenase)	pKi [1]	pKi [2]
CC#CCOc1ccc(S(=O)(=O)N2C[C@H]3OC(C)(C)O[C@H]3[C@H](O)[C@@H]2C(=O)NO)cc1	7.53	< 6.07	7.11	9.24
CC#CCOc1ccc(S(=O)(=O)N2C[C@@H](O)[C@H]3OC(C)(C)O[C@@H]3[C@@H]2C(=O)NO)cc1	7.24	< 6.07	6.93	8.73
CC#CCOc1ccc(S(=O)(=O)N2C[C@@H](O)[C@@H](O)[C@H](OC)[C@@H]2C(=O)NO)cc1	9.37	7.05	7.92	8.73
CC#CCOc1ccc(S(=O)(=O)N2C[C@H]3OC(C)(C)O[C@H]3[C@H](OC)[C@@H]2C(=O)NO)cc1	7.94	6.26	7.01	9.08
CC#CCOc1ccc(S(=O)(=O)N2C[C@@H](O)[C@@H](O)[C@H](O)[C@@H]2C(=O)NO)cc1	8.48	6.89	7.85	
